Test system: MDA-MB-453
Experiment: normalised response (% of control), CellTox Green; higher = less cell death (100 = DMSO, 0 = benzethonium chloride kill control)
Details: incubation time: 72 h
Method in brief: (§1)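 Breast cancer cell lines in 20 µl suspension were added to 384-well plates containing compound at 5 concentrations, spaced in 10-fold steps across a 10,000-fold range chosen for each compound, and incubated for 72 h. CellTox Green fluorescence was read at 485/520 nm, followed by CellTiter-Glo luminescence after 10 min at room temperature. Signals on each plate were normalised so that 0.1 % DMSO equals 100 and a positive kill control equals 0. Every value in the table is the normalised signal at one concentration of the series.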

In the case of CC[C@@]1(O)C(=O)OCc2c1cc1n(c2=O)Cc2cc3c(CN(C)C)c(O)ccc3nc2-1 [Topotecan] (100 nM), the normalised response is reported as 108%.

Test system: MDA-MB-468
Experiment: as above
Details: incubation time: 72 h
Method in brief: as §1

In order of falling normalised response:
1. O=C1c2c(O)ccc(O)c2C(=O)c2c(NCCNCCO)ccc(NCCNCCO)c21 [Mitoxantrone] (1000 nM)  217%
2. Cc1ccc(Nc2nccc(N(C)c3ccc4c(C)n(C)nc4c3)n2)cc1S(N)(=O)=O [Pazopanib] (10000 nM)  162%
3. O=C1c2c(O)ccc(O)c2C(=O)c2c(NCCNCCO)ccc(NCCNCCO)c21 [Mitoxantrone] (100 nM)  158%
4. C[C@]12C=CC(=O)C=C1CC[C@@H]1[C@@H]2[C@@H](O)C[C@@]2(C)[C@H]1CC[C@]2(O)C(=O)CO [Prednisolone] (10000 nM)  154%
5. COc1ccc(-c2cc3c(C)nc(N)nc3n([C@H]3CC[C@H](OCCO)CC3)c2=O)cn1 (1000 nM)  123%
6. COc1nc(N)nc2c1ncn2[C@@H]1O[C@H](CO)[C@@H](O)[C@@H]1O [Nelarabine] (10000 nM)  122%
7. Cc1c(CN2CCN(C(=O)[C@H](C)O)CC2)sc2c(N3CCOCC3)nc(-c3cnc(N)nc3)nc12 [GDC-0980] (10000 nM)  119%
8. CNC(=O)c1cc(Oc2ccc(NC(=O)Nc3ccc(Cl)c(C(F)(F)F)c3)cc2)ccn1 [Sorafenib] (100 nM)  118%
9. COc1cc(CCc2cc(NC(=O)c3ccc(N4CC(C)NC(C)C4)cc3)n[nH]2)cc(OC)c1 (stereo unspecified) [AZD4547] (100 nM)  117%
10. Cc1c(CN2CCN(C(=O)[C@H](C)O)CC2)sc2c(N3CCOCC3)nc(-c3cnc(N)nc3)nc12 [GDC-0980] (1000 nM)  117%
11. C[C@]12O[C@H](C[C@]1(O)CO)n1c3ccccc3c3c4c(c5c6ccccc6n2c5c31)CNC4=O [Lestaurtinib] (1000 nM)  107%
12. CCN(CC)CCNC(=O)c1c(C)[nH]c(/C=C2\C(=O)Nc3ccc(F)cc32)c1C [Sunitinib] (100 nM)  102%
13. Cc1nc(Nc2ncc(C(=O)Nc3c(C)cccc3Cl)s2)cc(N2CCN(CCO)CC2)n1 [Dasatinib] (100 nM)  101%
14. Cc1nc(Nc2ncc(C(=O)Nc3c(C)cccc3Cl)s2)cc(N2CCN(CCO)CC2)n1 [Dasatinib] (1000 nM)  99.7%
15. CC[C@@]1(O)C(=O)OCc2c1cc1n(c2=O)Cc2cc3c(CN(C)C)c(O)ccc3nc2-1 [Topotecan] (100 nM)  91.8%
16. CNC(=O)c1cc(Oc2ccc(NC(=O)Nc3ccc(Cl)c(C(F)(F)F)c3)cc2)ccn1 [Sorafenib] (1000 nM)  70.1%
17. C[C@]12O[C@H](C[C@]1(O)CO)n1c3ccccc3c3c4c(c5c6ccccc6n2c5c31)CNC4=O [Lestaurtinib] (100 nM)  69.6%
18. CCN(CC)CCNC(=O)c1c(C)[nH]c(/C=C2\C(=O)Nc3ccc(F)cc32)c1C [Sunitinib] (1000 nM)  66.4%
19. O=C(Nc1c[nH]nc1-c1nc2ccc(CN3CCOCC3)cc2[nH]1)NC1CC1 [AT9283] (1000 nM)  65.6%
20. COc1ccc(-c2cc3c(C)nc(N)nc3n([C@H]3CC[C@H](OCCO)CC3)c2=O)cn1 (10000 nM)  59.9%
21. CO[C@@H](C(=O)N1Cc2[nH]nc(NC(=O)c3ccc(N4CCN(C)CC4)cc3)c2C1)c1ccccc1 [Danusertib] (1000 nM)  51.4%
22. Cc1ccc(Nc2nccc(N(C)c3ccc4c(C)n(C)nc4c3)n2)cc1S(N)(=O)=O [Pazopanib] (1000 nM)  50%
23. Nc1ccccc1NC(=O)c1ccc(CNc2nccc(-c3cccnc3)n2)cc1 [Mocetinostat] (10000 nM)  -170%

Test system: MFM-223
Experiment: as above
Details: incubation time: 72 h
Method in brief: as §1

In order of rising normalised response:
1. Cc1c(CN2CCN(C(=O)[C@H](C)O)CC2)sc2c(N3CCOCC3)nc(-c3cnc(N)nc3)nc12 [GDC-0980] (10000 nM)  -39.7%
2. COc1ccc(-c2cc3c(C)nc(N)nc3n([C@H]3CC[C@H](OCCO)CC3)c2=O)cn1 (10000 nM)  52.8%
3. Nc1ccccc1NC(=O)c1ccc(CNc2nccc(-c3cccnc3)n2)cc1 [Mocetinostat] (10000 nM)  60.3%
4. O=C(Nc1c[nH]nc1-c1nc2ccc(CN3CCOCC3)cc2[nH]1)NC1CC1 [AT9283] (1000 nM)  75%
5. Cc1c(CN2CCN(C(=O)[C@H](C)O)CC2)sc2c(N3CCOCC3)nc(-c3cnc(N)nc3)nc12 [GDC-0980] (1000 nM)  76.5%
6. COc1ccc(-c2cc3c(C)nc(N)nc3n([C@H]3CC[C@H](OCCO)CC3)c2=O)cn1 (1000 nM)  81%
7. C[C@]12O[C@H](C[C@]1(O)CO)n1c3ccccc3c3c4c(c5c6ccccc6n2c5c31)CNC4=O [Lestaurtinib] (100 nM)  86.4%
8. COc1nc(N)nc2c1ncn2[C@@H]1O[C@H](CO)[C@@H](O)[C@@H]1O [Nelarabine] (10000 nM)  87.6%
9. O=C1c2c(O)ccc(O)c2C(=O)c2c(NCCNCCO)ccc(NCCNCCO)c21 [Mitoxantrone] (1000 nM)  88%
10. C[C@]12O[C@H](C[C@]1(O)CO)n1c3ccccc3c3c4c(c5c6ccccc6n2c5c31)CNC4=O [Lestaurtinib] (1000 nM)  89.8%
11. Cc1nc(Nc2ncc(C(=O)Nc3c(C)cccc3Cl)s2)cc(N2CCN(CCO)CC2)n1 [Dasatinib] (100 nM)  91.5%
12. CNC(=O)c1cc(Oc2ccc(NC(=O)Nc3ccc(Cl)c(C(F)(F)F)c3)cc2)ccn1 [Sorafenib] (1000 nM)  92.8%
13. CO[C@@H](C(=O)N1Cc2[nH]nc(NC(=O)c3ccc(N4CCN(C)CC4)cc3)c2C1)c1ccccc1 [Danusertib] (1000 nM)  92.9%
14. Cc1ccc(Nc2nccc(N(C)c3ccc4c(C)n(C)nc4c3)n2)cc1S(N)(=O)=O [Pazopanib] (10000 nM)  96.1%
15. COc1cc(CCc2cc(NC(=O)c3ccc(N4CC(C)NC(C)C4)cc3)n[nH]2)cc(OC)c1 (stereo unspecified) [AZD4547] (100 nM)  97.4%
16. CC[C@@]1(O)C(=O)OCc2c1cc1n(c2=O)Cc2cc3c(CN(C)C)c(O)ccc3nc2-1 [Topotecan] (100 nM)  98%
17. CCN(CC)CCNC(=O)c1c(C)[nH]c(/C=C2\C(=O)Nc3ccc(F)cc32)c1C [Sunitinib] (1000 nM)  99.2%
18. C[C@]12C=CC(=O)C=C1CC[C@@H]1[C@@H]2[C@@H](O)C[C@@]2(C)[C@H]1CC[C@]2(O)C(=O)CO [Prednisolone] (10000 nM)  99.7%
19. O=C1c2c(O)ccc(O)c2C(=O)c2c(NCCNCCO)ccc(NCCNCCO)c21 [Mitoxantrone] (100 nM)  101%
20. CNC(=O)c1cc(Oc2ccc(NC(=O)Nc3ccc(Cl)c(C(F)(F)F)c3)cc2)ccn1 [Sorafenib] (100 nM)  101%
21. CCN(CC)CCNC(=O)c1c(C)[nH]c(/C=C2\C(=O)Nc3ccc(F)cc32)c1C [Sunitinib] (100 nM)  101%
22. Cc1ccc(Nc2nccc(N(C)c3ccc4c(C)n(C)nc4c3)n2)cc1S(N)(=O)=O [Pazopanib] (1000 nM)  102%

— the supplement of paper PMC4862054
